These results are taken from patent US6403575B1, “3-Pyridyl enantiomers and their use as analgesics” (Abbott Laboratories, priority 1996, dated 2002).

Entries after “also recorded” stand apart in the source; their conditions may differ. Counter-ions that a name gives are not always drawn.

By Ki is commonly meant the dissociation constant of the complex between target and ligand, obtained from inhibition or displacement. Usually EC50 stands for the concentration giving half of the maximal effect.

The test system of data set [1] is mice. Description: Mouse Hot Plate Paradigm. As to conditions: ip, 0.5 h, i.p., 30 minutes prior to testing, 55° C., read-out: MED Hot plate model (μmol/kg, i.p.). Type of data set: in vivo.
Data set [2] deals with rats. Briefly: Chung Model of Neuropathic Pain. The format is in vivo. As to conditions: rat, 50% threshold to VonFrey hairs.
For data set [3], the target named is T1, peripheral ganglionic receptors (Homo sapiens, UniProt P30926+P32297).
T1 construct: Cells of the IMR-32 human neuroblastoma clonal cell line (ATCC, Rockville, Md.); host or cells: IMR-32 human neuroblastoma cells
Briefly: 86Rb+ flux activation in IMR-32 human neuroblastoma cells. Type of data set: cell-based. As to conditions: 1 μM compound, % of maximum response to (S)-nicotine. As for the experimental part: Protocol for the Determination of Ability of Nicotinic Acetylcholine Receptor Ligands to Activate Peripheral Ganglionic Receptors
Cells of the IMR-32 human neuroblastoma clonal cell line (ATCC, Rockville, Md.) were maintained in a log phase of growth according to established procedures. Experimental cells were seeded at a density of 500,000 cells/mL into a 24-well tissue culture dish. Plated cells were allowed to proliferate for at least 48 hours before loading with 2 μCi/mL of ^86Rb^+ (35 Ci/mmol) overnight at 37° C. The ^86Rb^+ efflux assays were performed according to previously published protocols (Lukas, R. J., J. Pharmacol. Exp. Ther., 265: 294-302, 1993) except serum-free Dulbecco's Modified Eagle's Medium was used during the ^86Rb^+ loading, rinsing, and agonist-induced efflux steps. Data reflect the activation of ^86Rb^+ flux at a concentration of 1 μM, and reflect the response as a percentage of the maximum response elicited by (S)-nicotine.

For data set [4], the target named is T2, neuronal nicotinic acetylcholine receptors (Rattus norvegicus, UniProt P09483+P12390).
T2 construct: crude synaptic membrane preparations from whole rat brain; from tissue; host or cells: whole rat brain, crude synaptic membranes
Description: [3H]-cytisine binding to neuronal nicotinic acetylcholine receptors, whole rat brain membranes. As to conditions: [3H]-cytisine 1.25 nM, whole rat brain membranes; read-out: [3H] CYT Ki. The method in brief:
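Crude synaptic membranes from whole rat brain (125-150 μg protein) incubated with test compound and 1.25 nM [3H]-cytisine for 60 min at 4 °C in Tris-Cl buffer pH 7.4 with Na/K/Mg/Ca salts. Filtration through PEI-soaked filters; nonspecific binding with 10 μM (−)-nicotine; values as percentage of total binding.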

The test system of data set [5] is mice. Type of data set: in vivo. To be noted: mouse, i.p. As for the experimental part: Motor coordination was assessed using an accelerating rotarod apparatus (Omnitech Electronics, Inc., Columbus, Ohio). Locomotor activity was monitored under dim light in a 41×41 cm. open field using a photobeam activity system (San Diego Instruments, San Diego, Calif.). The mouse was placed on a 3.5 cm diameter rod which increased in speed from 0 to 40 rpm over 120 seconds. The time required for the mouse to fall from the rod was recorded with a maximum score of 120 seconds. Twenty-five min after receiving an i.p. injection, the mice were placed in the open field for 5 min. After removal from the open field (i.e., 30 min after injection), they were immediately tested on the rotarod. Body temperature was assessed using a probe inserted 3 cm into the rectum approximately 35 min after injection. (YSI Tele-Thermometer, Yellow Springs Instrument Co., Inc., Yellow Springs, Ohio). Diazepam (10.5 μmol/kg, i.p.) was used as a positive control.

For data set [6], the system named is rats. Briefly: Chung Model of Neuropathic Pain following repeated dosing. The format is in vivo. To be noted: rat; for anti-allodynic effect following repeated dosing: in vivo, ip. As for the experimental part: Animals were surgically prepared as described above for the Chung model. For assessment of each test compound, two treatment groups (6 animals each) were established. One group was injected (i.p.) with test compound twice daily for 5 days, and the other group was injected on the same schedule with saline. Responses to von Frey hairs were assessed as described above both before, and 15 minutes after, injection on the first 2 days and also on the 5th day. The saline-treatment group was given saline for the first 4 days and on the morning of the 5th day, but received a challenge of the test compound in the afternoon of the fifth day.

Data set [7] concerns the target neuromuscular junction nicotinic acetylcholine receptor (Tetronarce californica, UniProt P02710+P02714+P02718). Description: biochemical. The format is binding, Torpedo Californica.
In data set [8] the test system is mice. To be noted: mouse, in vivo, ip. As for the experimental part:
Compounds were co-mixed in a syringe, and co-administered via the intraperitoneal route 30 min prior to testing in the mouse hot-plate paradigm as indicated above. Separate groups of animals (n=7-8/group) were used for each dose group.

Data set [9] deals with rat spinal cord cultures. Description: Neuroprotection against substance P or glutamate toxicity in primary spinal cord cultures (LDH release). Type of data set: cell-based. To be noted: rat spinal cord cultures. (Release of lactate dehydrogenase indicates damage to the cell membrane.)
Data set [10] relates to rats. Briefly: Formalin Model of Persistent Pain. The format is in vivo. As to conditions: rat, oral, 0.1-0.3 umol/kg, 15 minutes prior to formalin, second phase.
Data set [11] relates to rats. Description: Carrageenan paw edema model. Type of data set: in vivo. As to conditions: rat, i.p.

T2 sequence (P09483 31-630): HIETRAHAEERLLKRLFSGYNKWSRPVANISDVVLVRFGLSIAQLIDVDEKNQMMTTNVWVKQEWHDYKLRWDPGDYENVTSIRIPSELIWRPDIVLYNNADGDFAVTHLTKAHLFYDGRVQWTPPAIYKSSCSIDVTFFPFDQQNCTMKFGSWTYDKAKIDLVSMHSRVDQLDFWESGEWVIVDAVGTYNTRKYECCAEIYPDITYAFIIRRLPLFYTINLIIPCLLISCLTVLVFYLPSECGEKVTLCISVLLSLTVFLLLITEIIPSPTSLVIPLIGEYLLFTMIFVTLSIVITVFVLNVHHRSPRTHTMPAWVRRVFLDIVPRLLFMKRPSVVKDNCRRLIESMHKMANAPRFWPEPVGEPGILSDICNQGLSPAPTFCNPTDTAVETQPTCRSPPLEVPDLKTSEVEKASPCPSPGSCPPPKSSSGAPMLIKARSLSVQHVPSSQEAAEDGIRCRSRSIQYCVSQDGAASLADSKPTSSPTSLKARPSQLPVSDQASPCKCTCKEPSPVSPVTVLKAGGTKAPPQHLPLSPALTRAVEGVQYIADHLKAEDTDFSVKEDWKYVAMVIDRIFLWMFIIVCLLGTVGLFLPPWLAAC
T2 sequence (P12390 25-500): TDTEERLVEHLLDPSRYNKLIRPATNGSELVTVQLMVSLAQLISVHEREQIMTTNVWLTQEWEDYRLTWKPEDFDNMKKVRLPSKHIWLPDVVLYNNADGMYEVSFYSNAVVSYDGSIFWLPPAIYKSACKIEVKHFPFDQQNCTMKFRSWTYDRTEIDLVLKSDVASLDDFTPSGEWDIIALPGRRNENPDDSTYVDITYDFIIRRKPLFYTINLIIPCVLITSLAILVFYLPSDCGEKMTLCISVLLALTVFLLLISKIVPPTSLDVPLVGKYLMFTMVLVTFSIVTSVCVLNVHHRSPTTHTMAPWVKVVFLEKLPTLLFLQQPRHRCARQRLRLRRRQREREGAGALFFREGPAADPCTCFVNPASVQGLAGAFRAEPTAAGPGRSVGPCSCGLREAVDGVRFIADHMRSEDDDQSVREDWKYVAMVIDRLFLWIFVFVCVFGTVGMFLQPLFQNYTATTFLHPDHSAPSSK
T1 sequence (P32297 32-505): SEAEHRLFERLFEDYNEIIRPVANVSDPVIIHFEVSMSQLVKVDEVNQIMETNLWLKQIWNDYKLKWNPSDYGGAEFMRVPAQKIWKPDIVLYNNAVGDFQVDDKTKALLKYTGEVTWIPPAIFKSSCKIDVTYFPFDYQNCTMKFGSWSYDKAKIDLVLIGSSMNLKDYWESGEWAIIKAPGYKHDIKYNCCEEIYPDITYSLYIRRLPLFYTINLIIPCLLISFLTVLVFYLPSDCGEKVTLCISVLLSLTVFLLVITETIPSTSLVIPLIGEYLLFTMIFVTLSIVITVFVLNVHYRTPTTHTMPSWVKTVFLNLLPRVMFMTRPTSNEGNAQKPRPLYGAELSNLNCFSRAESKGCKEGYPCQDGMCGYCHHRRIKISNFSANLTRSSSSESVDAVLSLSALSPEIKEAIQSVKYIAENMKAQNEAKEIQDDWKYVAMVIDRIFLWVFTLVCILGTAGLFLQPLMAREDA
T1 sequence (P30926 22-498): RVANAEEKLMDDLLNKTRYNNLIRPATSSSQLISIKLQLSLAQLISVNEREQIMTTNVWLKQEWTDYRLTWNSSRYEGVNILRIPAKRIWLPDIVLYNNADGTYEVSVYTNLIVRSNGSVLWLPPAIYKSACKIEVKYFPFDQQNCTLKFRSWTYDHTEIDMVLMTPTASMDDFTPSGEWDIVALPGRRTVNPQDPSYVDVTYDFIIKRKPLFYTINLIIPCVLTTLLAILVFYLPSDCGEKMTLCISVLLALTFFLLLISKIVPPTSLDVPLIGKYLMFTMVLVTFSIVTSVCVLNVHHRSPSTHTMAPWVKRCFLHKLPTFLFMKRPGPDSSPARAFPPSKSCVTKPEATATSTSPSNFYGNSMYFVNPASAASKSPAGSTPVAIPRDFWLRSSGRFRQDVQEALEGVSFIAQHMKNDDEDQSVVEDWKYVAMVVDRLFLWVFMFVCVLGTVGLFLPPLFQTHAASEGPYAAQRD
neuromuscular junction nicotinic acetylcholine receptor, sequence (P02714 18-506): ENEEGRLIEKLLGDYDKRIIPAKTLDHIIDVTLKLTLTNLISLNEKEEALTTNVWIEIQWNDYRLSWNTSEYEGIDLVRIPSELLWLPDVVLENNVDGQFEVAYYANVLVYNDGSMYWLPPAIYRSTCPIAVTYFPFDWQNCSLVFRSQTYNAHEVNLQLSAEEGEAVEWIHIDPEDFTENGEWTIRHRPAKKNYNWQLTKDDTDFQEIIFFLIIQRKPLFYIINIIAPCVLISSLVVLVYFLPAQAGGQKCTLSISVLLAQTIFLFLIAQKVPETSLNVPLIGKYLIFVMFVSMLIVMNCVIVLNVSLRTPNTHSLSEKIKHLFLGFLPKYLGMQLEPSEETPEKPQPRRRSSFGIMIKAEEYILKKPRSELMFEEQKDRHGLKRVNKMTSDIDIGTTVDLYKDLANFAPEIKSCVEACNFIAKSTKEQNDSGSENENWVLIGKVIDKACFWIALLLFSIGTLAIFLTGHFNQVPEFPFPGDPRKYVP
neuromuscular junction nicotinic acetylcholine receptor, sequence (P02710 25-461): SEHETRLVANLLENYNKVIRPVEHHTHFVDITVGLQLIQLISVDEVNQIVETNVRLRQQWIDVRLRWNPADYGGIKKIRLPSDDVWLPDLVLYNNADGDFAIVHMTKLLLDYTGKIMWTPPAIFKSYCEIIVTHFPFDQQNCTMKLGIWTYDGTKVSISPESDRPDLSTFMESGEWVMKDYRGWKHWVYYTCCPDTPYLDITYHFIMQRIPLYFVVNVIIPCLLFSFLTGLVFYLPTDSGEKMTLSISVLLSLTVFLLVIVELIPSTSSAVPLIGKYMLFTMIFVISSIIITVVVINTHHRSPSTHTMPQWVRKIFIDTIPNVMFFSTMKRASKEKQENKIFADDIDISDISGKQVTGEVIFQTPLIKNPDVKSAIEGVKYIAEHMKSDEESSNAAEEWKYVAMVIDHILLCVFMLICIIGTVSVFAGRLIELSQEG
neuromuscular junction nicotinic acetylcholine receptor, sequence (P02712 25-493, further chain): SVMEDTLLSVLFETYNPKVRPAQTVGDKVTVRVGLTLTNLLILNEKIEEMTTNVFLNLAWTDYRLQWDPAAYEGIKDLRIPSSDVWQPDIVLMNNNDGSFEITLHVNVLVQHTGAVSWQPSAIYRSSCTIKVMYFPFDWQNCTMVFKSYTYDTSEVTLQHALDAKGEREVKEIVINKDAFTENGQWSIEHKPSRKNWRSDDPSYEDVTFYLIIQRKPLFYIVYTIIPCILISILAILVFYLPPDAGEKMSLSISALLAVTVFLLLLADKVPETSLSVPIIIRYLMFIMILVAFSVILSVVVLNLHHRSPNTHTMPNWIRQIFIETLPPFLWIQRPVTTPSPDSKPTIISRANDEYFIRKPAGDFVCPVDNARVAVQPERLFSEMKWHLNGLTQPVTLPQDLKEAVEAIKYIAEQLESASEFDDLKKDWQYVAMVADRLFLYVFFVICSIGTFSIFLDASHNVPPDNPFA
neuromuscular junction nicotinic acetylcholine receptor, sequence (P02718 22-522): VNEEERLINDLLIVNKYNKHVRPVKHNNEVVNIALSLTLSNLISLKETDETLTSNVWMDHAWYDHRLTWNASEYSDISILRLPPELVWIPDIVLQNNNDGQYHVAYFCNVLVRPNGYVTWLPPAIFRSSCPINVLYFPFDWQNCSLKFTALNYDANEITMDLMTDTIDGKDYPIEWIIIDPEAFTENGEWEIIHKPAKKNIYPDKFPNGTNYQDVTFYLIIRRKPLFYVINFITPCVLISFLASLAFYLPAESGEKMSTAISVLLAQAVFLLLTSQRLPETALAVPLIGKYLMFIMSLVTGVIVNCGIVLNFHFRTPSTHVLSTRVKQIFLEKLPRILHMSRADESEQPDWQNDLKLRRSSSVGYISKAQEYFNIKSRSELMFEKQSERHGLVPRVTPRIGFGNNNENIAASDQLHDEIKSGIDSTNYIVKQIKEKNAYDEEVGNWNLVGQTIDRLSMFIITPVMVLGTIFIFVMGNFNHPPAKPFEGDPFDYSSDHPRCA

`Fc1ccc(OCC2CCN2)cn1` [Example 8, 5-(2R)-Azetidinylmethyloxy)-2-fluoropyridine dibenzoate]: the minimal effective dose in data set [1] came out at 1.9 µmol/kg. Besides, the “MED Chung model (μmol/kg, i.p.)” value in data set [2] was 0.62 µmol/kg. Also, the “IMR-32 % maximal nicotine response at 1 μM Cmpd conc'n” value (shortened to “IMR-32 % maximal nicotine response”) in data set [3] is reported as 46%. Besides, in data set [4], the Ki came out at 0.06 nM. Also, the “dose at which a rotarod effect was reached” value in [5] is given as 19.
`Clc1ccc(OC[C@H]2CCN2)cn1` [Example 4, 5-((2R)-Azetidinylmethyloxy)-2-chloropyridine hydrochloride]: the “anti-allodynic effects during each test session” value in data set [6] (0.3 μmol/kg, i.p., b.i.d., 5 days) was “Significant anti-allodynic effects”. In addition, in [6], the “anti-allodynic effect following repeated dosing” value is on record as “does not decrease following repeated dosing”. In data set [7], the Ki was determined as 16600 nM and the “reduced affinity for the neuromuscular junction nicotinic acetylcholine receptor” value is on record as 12.8 fold. Also, in [8], the “antinociceptive activity combined with effective doses of morphine” value is “enhanced antinociceptive activity”, the “antinociceptive activity combined with subthreshold doses of morphine” value is “can produce effective antinociceptive activity” and the “antinociceptive effects when coadministered with morphine” value is “produced effective antinociceptive effects”. Also, the minimal effective dose in data set [1] was 0.62 µmol/kg. For the same compound, in [9] (SP 30 μM or Glu 300 μM, hydrochloride), the “protection against SP- and Glu-induced neurotoxicity” value was “protects against SP-induced neurotoxicity; also recorded: reduces both SP and Glu-induced neurotoxicity”. In data set [9] (SP and Glu-induced neurotoxicity), this compound yielded an EC50 of 10000 nM. For the same compound, in data set [2], the “MED Chung model (μmol/kg, i.p.)” value turned out to be 0.3 µmol/kg. Moreover, the “IMR-32 % maximal nicotine response” value in data set [3] is listed as 97%. Also, the Ki in data set [4] is 0.05 nM. The “antinociceptive effects in the Formalin Model” value in data set [10] was “produced significant antinociceptive effects”. Besides, the “ED30 reduction of carrageenan-induced paw edema” value in [11] stood at 0.21 µmol/kg. In addition, the “efficacy to reduce paw edema compared with dexamethasone” value in [11] (hydrochloride) is recorded as “as effective as dexamethansone; also recorded: as efficacious as dexamethasone”.
`CN1CC[C@]23c4c5ccc(O)c4O[C@H]2[C@@H](O)C=C[C@H]3[C@H]1C5` [morphine, reference compound]: in [6], the “anti-allodynic effect following repeated dosing” value is recorded as “significantly reduced”.
With `Fc1ccc(OC[C@@H]2CCN2)cn1` [Example 9, 5-(2S)-Azetidinylmethyloxy)-2-fluoropyridine dibenzoate], in data set [1], the minimal effective dose is 0.62 µmol/kg. Also, in data set [3], the “IMR-32 % maximal nicotine response” value was found to be 103%. In data set [4], the Ki was 0.16 nM. The “dose showing rotarod impairments” value in data set [5] (in 2 of 3 experiments) worked out at 0.62 µmol/kg.
